Test results from PubChem BioAssay (NCI).
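These data come from cells grown in 96-well plates and exposed to compound for 48 hours at five concentrations. At the TGI there is no net growth.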

Key:
Experiment in all cases: NCI tumour cell line growth inhibition, 48 h
HCT-15 colon = system: HCT-15 colon
MOLT-4 leukemia = system: MOLT-4 leukemia
PC-3 prostate = system: PC-3 prostate
SF-295 CNS = system: SF-295 CNS
UACC-62 melanoma = system: UACC-62 melanoma
SK-MEL-5 melanoma = system: SK-MEL-5 melanoma
RXF 393 renal = system: RXF 393 renal
LOX IMVI melanoma = system: LOX IMVI melanoma
U251 CNS = system: U251 CNS
HS 578T breast = system: HS 578T breast
HCT-116 colon = system: HCT-116 colon
TK-10 renal = system: TK-10 renal
SF-268 CNS = system: SF-268 CNS
MALME-3M melanoma = system: MALME-3M melanoma
T-47D breast = system: T-47D breast
NCI-H226 lung = system: NCI-H226 lung
HOP-62 NSCLC = system: HOP-62 NSCLC
SN12C renal = system: SN12C renal
MDA-MB-231 breast = system: MDA-MB-231 breast
OVCAR-3 ovarian = system: OVCAR-3 ovarian
KM12 colon = system: KM12 colon
NCI-H522 lung = system: NCI-H522 lung
NCI/ADR-RES ovarian = system: NCI/ADR-RES ovarian
MDA-N = system: MDA-N
SK-MEL-28 melanoma = system: SK-MEL-28 melanoma
M14 melanoma = system: M14 melanoma
MDA-MB-435 = system: MDA-MB-435
HL-60(TB) leukemia = system: HL-60(TB) leukemia
HCC-2998 colon = system: HCC-2998 colon
NCI-H23 lung = system: NCI-H23 lung
OVCAR-5 ovarian = system: OVCAR-5 ovarian
UACC-257 melanoma = system: UACC-257 melanoma
MCF7 breast = system: MCF7 breast
SR leukemia = system: SR leukemia
SK-OV-3 ovarian = system: SK-OV-3 ovarian
786-0 renal = system: 786-0 renal
OVCAR-8 ovarian = system: OVCAR-8 ovarian
COLO 205 colon = system: COLO 205 colon
EKVX NSCLC = system: EKVX NSCLC
CAKI-1 renal = system: CAKI-1 renal
ACHN renal = system: ACHN renal
HT29 colon = system: HT29 colon
SNB-75 CNS = system: SNB-75 CNS
A549 NSCLC = system: A549 NSCLC
OVCAR-4 ovarian = system: OVCAR-4 ovarian
A498 renal = system: A498 renal
IGROV1 ovarian = system: IGROV1 ovarian
CCRF-CEM leukemia = system: CCRF-CEM leukemia
SF-539 CNS = system: SF-539 CNS
HOP-92 NSCLC = system: HOP-92 NSCLC
NCI-H460 lung = system: NCI-H460 lung
DU-145 prostate = system: DU-145 prostate
SK-MEL-2 melanoma = system: SK-MEL-2 melanoma

CN(C)N1C(=O)S/C(=C\c2ccc([N+](=O)[O-])cc2)C1=O
TGI (HCT-15 colon): > 100 µM
TGI (MOLT-4 leukemia): > 100 µM
TGI (PC-3 prostate): > 100 µM
TGI (SF-295 CNS): > 100 µM
TGI (UACC-62 melanoma): > 100 µM
TGI (SK-MEL-5 melanoma): > 100 µM
TGI (RXF 393 renal): > 100 µM
TGI (LOX IMVI melanoma): > 100 µM
TGI (U251 CNS): > 100 µM
TGI (HS 578T breast): > 100 µM
TGI (HCT-116 colon): > 100 µM
TGI (TK-10 renal): > 100 µM
TGI (SF-268 CNS): > 100 µM
TGI (MALME-3M melanoma): > 100 µM
TGI (T-47D breast): > 100 µM
TGI (NCI-H226 lung): > 100 µM
TGI (HOP-62 NSCLC): > 100 µM
TGI (SN12C renal): > 100 µM
TGI (MDA-MB-231 breast): > 100 µM
TGI (OVCAR-3 ovarian): > 100 µM
TGI (KM12 colon): > 100 µM
TGI (NCI-H522 lung): > 100 µM
TGI (NCI/ADR-RES ovarian): > 100 µM
TGI (MDA-N): > 100 µM
TGI (SK-MEL-28 melanoma): > 100 µM
TGI (M14 melanoma): > 100 µM
TGI (MDA-MB-435): > 100 µM
TGI (HL-60(TB) leukemia): > 100 µM
TGI (HCC-2998 colon): > 100 µM
TGI (NCI-H23 lung): > 100 µM
TGI (OVCAR-5 ovarian): > 100 µM
TGI (UACC-257 melanoma): > 100 µM
TGI (MCF7 breast): > 100 µM
TGI (SR leukemia): > 100 µM
TGI (SK-OV-3 ovarian): > 100 µM
TGI (786-0 renal): > 100 µM
TGI (OVCAR-8 ovarian): > 100 µM
TGI (COLO 205 colon): > 100 µM
TGI (EKVX NSCLC): > 100 µM
TGI (CAKI-1 renal): > 100 µM
TGI (ACHN renal): > 100 µM
TGI (HT29 colon): > 100 µM
TGI (SNB-75 CNS): 98.7 µM
TGI (A549 NSCLC): > 100 µM
TGI (OVCAR-4 ovarian): > 100 µM
TGI (A498 renal): > 100 µM
TGI (IGROV1 ovarian): > 100 µM
TGI (CCRF-CEM leukemia): > 100 µM
TGI (SF-539 CNS): > 100 µM
TGI (HOP-92 NSCLC): > 100 µM
TGI (NCI-H460 lung): > 100 µM
TGI (DU-145 prostate): > 100 µM
TGI (SK-MEL-2 melanoma): > 100 µM
